Laboratory results as given in patent publication US4382923A, “Tetrapeptide acylhydrazides, their production and use” (Takeda Chemical Industries, Ltd., priority 1980, dated 1983).

Experiments:
Slc:ICR mice = assay: Phenylquinone writhing method; format: in vivo; conditions: oral route; reference
Method: Phenylquinone writhing method
The compound (I) of the present invention was administered orally or subcutaneously to Slc:ICR mice weighing 18-20 g. According to the method of E. Siegmund, R. Cadmus and G. Lu [Proc. Soc.Exp.Biol, Med. 95, 729 (1957)], 0.02% phenylquinone in 5% ethanol saline was injected intraperitoneally in a dose of 0.1 ml/10 g body weight 30 min. after administration of the compound (I). The frequency of abdominal writhing was then counted for 20 min. Analgesic effect was indicated by comparing test group with control group.

[1] = intravenous route; cited from earlier work
[2] = direct intracerebral administration; cited from earlier work

Row | Compound | effective dose, analgesic activity (abdominal writhing) (Slc:ICR mice) | analgesic effect [1] | morphinomimetic activity [2]
1 | CN1CC[C@]23c4c5ccc(O)c4O[C@H]2[C@@H](O)C=C[C@H]3[C@H]1C5 [morphine] | 2.5 mg/kg | – | –
2 | H-Tyr-Gly-Gly-Phe-Leu-OH | – | do not produce analgesic effects | show morphinomimetic activity
3 | H-Tyr-Gly-Gly-Phe-Met-OH (H-YGGFM-OH) [enkephalin, pentapeptide isolated from the pig brain] | – | do not produce analgesic effects | show morphinomimetic activity
4 | β-endorphin (YGGFMTSEKSQTPLVTLFKNAIIKNAYKKGE; Beta-endorphin; UniProt P01189 237-267, looked up) [polypeptide consisting of 31 amino acid moieties, peptide-type analgesic] | – | overt analgesic action | –
